# Data published in US20240217982A1, “KRAS INHIBITORS” (Bristol-Myers Squibb Company, priority 2021, published 2024).
# Assays:
# [1] = target: T1, KRAS G12D (Homo sapiens (Human), UniProt P01116, G12D); assay: KRAS G12D Nucleotide Exchange Assay (HTRF); format: biochemical; settings: recombinant GDP-loaded KRAS G12D (20 nM), BIODIPY-labeled GDP (400 nM), recombinant SOS (10 nM), HTRF signal
# Method: Recombinant GDP-loaded KRAS G12D (20 nM) was treated with compound at room temperature for 20 minutes in assay buffer (10 mM Hepes pH 7.4, 150 mM NaCl, 5 mM MgCl2, 0.0025% Igepal-CA630, 0.05% BSA, 1 mM DTT, 0.5 nM SA-Tb). BIODIPY-labeled GDP (400 nM) and recombinant SOS (10 nM) were added, and the reaction was incubated for 30 minutes.
# [2] = target: T1, KRAS G12D; assay: KRAS G12D RAF Disruption Assay (HTRF); format: biochemical; settings: recombinant GMPPNP-loaded KRAS G12D (5 nM), GST-RAF1 RBD (9 nM), HTRF signal
# Method: Recombinant GMPPNP-loaded KRAS G12D (5 nM) was treated with compound at room temperature for 20 minutes in assay buffer (50 mM Tris pH 7.5, 100 mM NaCl, 1 mM MgCl2, 1 mM DTT, 100 ug/mL BSA).
# T1 sequence (P01116-2 other isoform, or with tags, fused parts or gaps G12D): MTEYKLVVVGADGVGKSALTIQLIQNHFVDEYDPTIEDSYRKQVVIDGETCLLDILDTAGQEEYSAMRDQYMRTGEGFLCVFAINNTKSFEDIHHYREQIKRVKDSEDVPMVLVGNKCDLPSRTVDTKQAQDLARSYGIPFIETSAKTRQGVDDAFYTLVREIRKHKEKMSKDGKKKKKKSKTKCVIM
SMILES,"KRASG12D Nucleotide Exchange Assay (IC50, µM) [1]","KRASG12D RAF Disruption Assay (IC50, µM) [2]"
"Oc1cc(-c2c(Cl)cc3c(N4CC[C@H]5CC[C@@H](C4)N5)nc(OC[C@]45CCCN4C[C@@H](F)C5)nc3c2F)c2ccccc2c1 (single isomer, unassigned) [Example 8-9]",0.005 µM,0.7 µM
"Cc1cc(N)nc(-c2c(Cl)cc3c(N4CC[C@H]5CC[C@@H](C4)N5)nc(OC[C@]45CCCN4C[C@H](F)C5)nc3c2F)c1C(F)(F)F [Example 4-3, 6-(2-{[(2R,7aR)-2-fluoro-hexahydro-1H-pyrrolizin-7a-yl]methoxy}-6-chloro-4-[(1S,6R)-3,9-diazabicyclo[4.2.1]nonan-3-yl]-8-fluoroquinazolin-7-yl)-4-methyl-5-(trifluoromethyl)pyridin-2-amine]",0.02 µM,0.52 µM
"CCc1cccc2cc(O)cc(-c3c(Cl)cc4c(N5CC[C@H]6CC[C@@H](C5)N6)nc(OC[C@]56CCCN5C[C@@H](F)C6)nc4c3F)c12 (single isomer, unassigned) [Example 8-3]",0.07 µM,17.3 µM
"C#Cc1c(F)ccc2cc(O)cc(-c3ccc4c(N5CC[C@H]6CC[C@@H](C5)N6)nc(OC[C@]56CCC[C@H]5N(C)CCC6)nc4c3F)c12 [Example 9-4, 4-(2-{[(4aS,7aR)-1-methyl-octahydro-1H-cyclopenta[b]pyridin-4a-yl]methoxy}-4-[(1S,6R)-3,9-diazabicyclo[4.2.1]nonan-3-yl]-8-fluoroquinazolin-7-yl)-5-ethynyl-6-fluoronaphthalen-2-ol]",0.02 µM,0.2 µM
"CCc1cccc2cc(O)cc(-c3c(Cl)cc4c(N5CC[C@H]6CC[C@@H](C5)N6)nc(OC[C@]56CCCN5C[C@@H](F)C6)nc4c3F)c12 (single isomer, unassigned) [Example 8-4]",7.7 µM,37.8 µM
"Cc1cc(N)nc(-c2c(Cl)cc3c(N4CC5CCC(C4)NC5)nc(OC[C@@H]4CCCN4C)nc3c2F)c1C(F)(F)F (stereo partly drawn) [Example 2-2, 6-(6-chloro-4-{3,6-diazabicyclo[3.2.2]nonan-3-yl}-8-fluoro-2-{[(2S)-1-methylpyrrolidin-2-yl]methoxy}quinazolin-7-yl)-4-methyl-5-(trifluoromethyl)pyridin-2-amine]",0.14 µM,10.88 µM
"CN1CCC[C@H]1COc1nc(N2CCN3CCC2CC3)c2cc(Cl)c(-c3cc(O)cc4ccccc34)c(F)c2n1 [Example 1-2, 4-(6-chloro-4-{1,4-diazabicyclo[3.2.2]nonan-4-yl}-8-fluoro-2-{[(2S)-1-methylpyrrolidin-2-yl]methoxy}quinazolin-7-yl)naphthalen-2-ol]",13.66 µM,>100 µM
"Cc1cc(N)nc(-c2c(Cl)cc3c(N4CC[C@H]5CC[C@@H](C4)N5)nc(OC[C@]45CCCN4C[C@@H](F)C5)nc3c2F)c1C(F)(F)F [Example 4-2, 6-(2-{[(2S,7aR)-2-fluoro-hexahydro-1H-pyrrolizin-7a-yl]methoxy}-6-chloro-4-[(1S,6R)-3,9-diazabicyclo[4.2.1]nonan-3-yl]-8-fluoroquinazolin-7-yl)-4-methyl-5-(trifluoromethyl)pyridin-2-amine]",0.006 µM,0.43 µM
"Oc1cc(-c2c(Cl)cc3c(N4CC[C@H]5CC[C@@H](C4)N5)nc(OC[C@@]45CCCN4C[C@H](F)C5)nc3c2F)c2ccccc2c1 (single isomer, unassigned) [Example 8-7]",0.006 µM,0.51 µM
"CN1CCC[C@H]1COc1nc(N2CC[C@H]3CC[C@@H](C2)N3)c2cc(Cl)c(-c3cc(O)cc4ccccc34)c(F)c2n1 [Example 6, 4-{6-chloro-4-[(1S,6R)-3,9-diazabicyclo[4.2.1]nonan-3-yl]-8-fluoro-2-{[(2S)-1-methylpyrrolidin-2-yl]methoxy}quinazolin-7-yl}naphthalen-2-ol]",0.01 µM,3.68 µM
"Oc1cc(-c2c(Cl)cc3c(N4CC[C@H]5CC[C@@H](C4)N5)nc(OC[C@@]45CCCN4C[C@H](F)C5)nc3c2F)c2c(F)cccc2c1 (single isomer, unassigned) [Example 8-5]",,0.07 µM

# Further lines, results first:
"KRASG12D Nucleotide Exchange Assay (IC50, µM) [1]","KRASG12D RAF Disruption Assay (IC50, µM) [2]",SMILES
0.03 µM,6.3 µM,"Cc1cc(N)nc(-c2ccc3c(N4CC[C@H]5CC[C@@H](C4)N5)nc(OC[C@@]45CCCN4C[C@H](F)C5)nc3c2F)c1C(F)(F)F [Example 12-1, 6-(2-{[(2R,7aS)-2-fluoro-hexahydro-1H-pyrrolizin-7a-yl]methoxy}-4-[(1S,6R)-3,9-diazabicyclo[4.2.1]nonan-3-yl]-8-fluoroquinazolin-7-yl)-4-methyl-5-(trifluoromethyl)pyridin-2-amine]"
0.06 µM,5.1 µM,"Oc1cc(-c2ccc3c(N4CC[C@H]5CC[C@@H](C4)N5)nc(OC[C@@]45CCCN4C[C@H](F)C5)nc3c2F)c2ccccc2c1 [Example 11-7, 4-(2-{[(2R,7aS)-2-fluoro-hexahydro-1H-pyrrolizin-7a-yl]methoxy}-4-[(1S,6R)-3,9-diazabicyclo[4.2.1]nonan-3-yl]-8-fluoroquinazolin-7-yl)naphthalen-2-ol]"
0.06 µM,12.1 µM,"Cc1cc(N)nc(-c2c(Cl)cc3c(N4CC[C@H]5CC[C@@H](C4)N5)nc(OCC4(CN5CCOCC5)CC4)nc3c2F)c1C(F)(F)F [Example 10-7, 6-{6-chloro-4-[(1S,6R)-3,9-diazabicyclo[4.2.1]nonan-3-yl]-8-fluoro-2-({1-[(morpholin-4-yl)methyl]cyclopropyl}methoxy)quinazolin-7-yl}-4-methyl-5-(trifluoromethyl)pyridin-2-amine]"
0.9 µM,81 µM,"Cc1cc(N)nc(-c2c(Cl)cc3c(N4CC[C@H]5CC[C@@H](C4)N5)nc(OC[C@@]45CCCN4C[C@@H](OC(F)F)C5)nc3c2F)c1C(F)(F)F (single isomer, unassigned) [Example 10-5]"
0.11 µM,41.5 µM,"Cc1cc(N)nc(-c2c(Cl)cc3c(N4CC[C@H]5CC[C@@H](C4)N5)nc(OCC4(CN5CC[C@@H](F)C5)CC4)nc3c2F)c1C(F)(F)F [Example 10-4, 6-{6-chloro-4-[(1S,6R)-3,9-diazabicyclo[4.2.1]nonan-3-yl]-8-fluoro-2-[(1-{[(3R)-3-fluoropyrrolidin-1-yl]methyl}cyclopropyl)methoxy]quinazolin-7-yl}-4-methyl-5-(trifluoromethyl)pyridin-2-amine]"
0.02 µM,2.6 µM,"Cc1cc(N)nc(-c2c(Cl)cc3c(N4CC[C@H]5CC[C@@H](C4)N5)nc(OCC4(CN5CCCCC5)CC4)nc3c2F)c1C(F)(F)F [Example 10-8, 6-{6-chloro-4-[(1S,6R)-3,9-diazabicyclo[4.2.1]nonan-3-yl]-8-fluoro-2-({1-[(piperidin-1-yl)methyl]cyclopropyl}methoxy)quinazolin-7-yl}-4-methyl-5-(trifluoromethyl)pyridin-2-amine]"
0.01 µM,1.0 µM,"Oc1cc(-c2ccc3c(N4CC[C@H]5CC[C@@H](C4)N5)nc(OC[C@@]45CCCN4C[C@H](F)C5)nc3c2F)c2c(F)cccc2c1 [Example 11-2, 4-(2-{[(2R,7aS)-2-fluoro-hexahydro-1H-pyrrolizin-7a-yl]methoxy}-4-[(1S,6R)-3,9-diazabicyclo[4.2.1]nonan-3-yl]-8-fluoroquinazolin-7-yl)-5-fluoronaphthalen-2-ol]"
0.41 µM,51.0 µM,"Cc1cc(N)nc(-c2c(Cl)cc3c(N4CC[C@H]5CC[C@@H](C4)N5)nc(OCC4(CN5CCCC(F)C5)CC4)nc3c2F)c1C(F)(F)F (stereo partly drawn) [Example 10-9, 6-{6-chloro-4-[(1S,6R)-3,9-diazabicyclo[4.2.1]nonan-3-yl]-8-fluoro-2-({1-[(3-fluoropiperidin-1-yl)methyl]cyclopropyl}methoxy)quinazolin-7-yl}-4-methyl-5-(trifluoromethyl)pyridin-2-amine]"
0.01 µM,2.7 µM,"Cc1cc(N)nc(-c2c(Cl)cc3c(N4CC[C@H]5CC[C@@H](C4)N5)nc(OCC4(CN5CCCC(F)C5)CC4)nc3c2F)c1C(F)(F)F (stereo partly drawn) [Example 10-3, 6-{6-chloro-4-[(1S,6R)-3,9-diazabicyclo[4.2.1]nonan-3-yl]-8-fluoro-2-({1-[(3-fluoropiperidin-1-yl)methyl]cyclopropyl}methoxy)quinazolin-7-yl}-4-methyl-5-(trifluoromethyl)pyridin-2-amine]"
0.006 µM,1.0 µM,"Cc1cc(N)nc(-c2c(Cl)cc3c(N4CC[C@H]5CC[C@@H](C4)N5)nc(OCC4(CN5C6CCC5COC6)CC4)nc3c2F)c1C(F)(F)F [Example 10-2, 6-{6-chloro-4-[(1S,6R)-3,9-diazabicyclo[4.2.1]nonan-3-yl]-8-fluoro-2-{[1-({3-oxa-8-azabicyclo[3.2.1]octan-8-yl}methyl)cyclopropyl]methoxy}quinazolin-7-yl}-4-methyl-5-(trifluoromethyl)pyridin-2-amine]"
